Measurements as given in patent US8563754B2, “Compounds, compositions and methods for preventing skin darkening” (priority 2010, dated 2013).
Like-named read-outs stand apart in the source and are kept apart here.

Tested on: cultured murine melanocytes (melan-a)
Experiment: Melanin assay in cultured murine melanocytes (melan-a)
Format: cell-based
Conditions: for activity at 1 µM / activity at 5 µM: Mus musculus; for activity at 1 µM: read-out: % of control melanin remaining after treatment @ 1 μM; for activity at 5 µM: read-out: % of control melanin remaining after treatment @ 5 μM; for ability to block melanin accumulation: cells treated with 1 and 5 uM test compound versus carrier (DMSO) only
Description: The Spectrum Collection library consisting of 2000 drug compounds or natural products represents a source for the identification of compounds useful in the present invention. The library may be screened to identify novel pigmentation inhibitors in cultured murine melanocytes (melan-a). Compounds are dissolved in dimethylsulfoxide (DMSO) to a final concentration of 10 mM. Screening is performed with cultured melanocytes in 24-well plates followed by melanin assay (see below). A minimum change of 50% in melanin formation is established as significant for a pigmentation inhibitor. DMSO may be used as a negative control and the widely used depigmenting agent, hydroquinone, may be used as a positive control on every plate. Primary screening is performed at a final concentration of 1 μM and potential candidates from the primary screening are reconfirmed in duplicate at final concentrations of 1 and 5 μM.
Melan-a cells are plated at 5×10^4 cells per well in 1 ml of culture media in 24-well plates the day before adding the library compounds. All compounds are added at the indicated final concentrations. Cells are harvested after 72 hours of incubation, and the melanin assay is performed.
For the primary and secondary screening, cells were harvested and dissolved in 200 μl of 2N NaOH in 20% DMSO at 70° C. A 180-μl aliquot of the resulting solution was measured for absorbance at 490 nm.
A series of structurally related compounds was then tested in this screen, to identify compounds that inhibit skin darkening.

[1] = 1 μM test compound, melan-a cells, 72 hours incubation, control = DMSO carrier, absorbance at 490 nm
[2] = 5 μM test compound, melan-a cells, 72 hours incubation, control = DMSO carrier, absorbance at 490 nm

Row | Molecule | activity at 1 µM [1] [%] | activity at 5 µM [2] [%] | other results
1 | CC(C)=CCOc1cc2oc(=O)ccc2cc1O [Compound 1, PRENYLETIN] | 79 | 80 | –
2 | C=C(C)[C@H]1COc2cc3oc(=O)ccc3cc2O1 [Compound 2, OBLIQUIN] | 84 | 95 | –
3 | CC(C)C1COc2cc3oc(=O)ccc3cc2O1 (stereo not shown) [Compound 3, DIHYDRO-OBLIQUIN] | 81 | 81 | –
4 | COc1cc2ccc(=O)oc2c(OC)c1OC [Compound 4, FRAXIDIN METHYL ETHER] | 87 | 95 | –
5 | CC1(C)C=Cc2cc3ccc(=O)oc3cc2O1 [Compound 5, XANTHYLETIN] | 99 | 110 | –
6 | CC(C)=CCOc1c2occc2cc2ccc(=O)oc12 [Compound 6, IMPERATORIN] | 91 | 96 | –
7 | COc1cc2c(cc1-c1cc3cc4ccoc4cc3oc1=O)OCO2 [Compound 7, PACHYRRHIZIN] | – | – | activity at 1 µM (Melan-a, 72 h): 75%; activity at 5 µM (Melan-a, 72 h): 71%; ability to block melanin accumulation: robust dose dependent ability to block melanin accumulation
8 | COc1ccc2ccc(=O)oc2c1 [Compound 8, HERNIARIN] | 84 | 81 | –
9 | COc1ccc(-c2c(OC)c3c(OC)c4c(cc3oc2=O)OC(C)(C)C=C4)cc1 [Compound 9, ROBUSTIC ACID METHYL ETHER] | 69 | 16 | ability to block melanin accumulation: robust dose dependent ability to block melanin accumulation
10 | COc1ccc(-c2c(O)c3c(OC)c4c(cc3oc2=O)OC(C)(C)C=C4)cc1 [Compound 10, ROBUSTIC ACID] | 91 | 93 | –
11 | COc1c(O)cc2c(-c3ccccc3)cc(=O)oc2c1OC [Compound 11, KUHLMANNIN] | 81 | 84 | –
12 | COc1cc2ccc(=O)oc2c2ccoc12 [Compound 12, SPHONDIN] | 89 | 101 | –
13 | COc1c2ccoc2c(OC)c2oc(=O)ccc12 [Compound 13, ISOPIMPINELLIN] | 86 | 95 | –
14 | COc1c(OC)c2occc2c2oc(=O)ccc12 [Compound 14, PIMPINELLIN] | 76 | 109 | –
15 | COc1cc2occc2c2oc(=O)ccc12 [Compound 15, ISOBERGAPTENE] | 86 | 108 | –
16 | COc1c(CC=C(C)C)c2c(c3oc(=O)c(-c4ccc(O)cc4)c(O)c13)C=CC(C)(C)O2 [Compound 16, SCANDENIN] | 90 | 64 | ability to block melanin accumulation: robust dose dependent ability to block melanin accumulation
17 | COc1ccc2c(C)cc(=O)oc2c1 [Compound 17, HYMECROMONE METHYL ETHER] | 96 | 93 | –
18 | COc1c2ccoc2cc2oc(=O)ccc12 [Compound 18, BERGAPTENE] | 100 | 93 | –
19 | CCOP(=S)(OCC)Oc1ccc2c(C)c(Cl)c(=O)oc2c1 [Compound 19, COUMOPHOS] | 81 | 48 | ability to block melanin accumulation: robust dose dependent ability to block melanin accumulation
20 | COc1c2occc2cc2ccc(=O)oc12 [Compound 20, METHOXSALEN, reference compound] | 120 | 125 | –

Row | Molecule | activity at 1 µM [1] [%] | activity at 5 µM [2] [%] | other results
21 | CO[C@@H]1[C@@H](OC(N)=O)[C@@H](O)[C@H](Oc2ccc3c(O)c(NC(=O)c4ccc(O)c(CC=C(C)C)c4)c(=O)oc3c2C)OC1(C)C [Compound 21, NOVOBIOCIN SODIUM, reference compound] | 90 | 94 | –
22 | Cc1cc2cc3c(C)cc(=O)oc3c(C)c2o1 [Compound 22, TRIOXSALEN, reference compound] | 90 | 118 | –
23 | COc1cc(OC)c2ccc(=O)oc2c1 [Compound 23, CITROPTEN] | 86 | 97 | –
24 | Cc1cc(=O)oc2cc(O)c(O)cc12 [Compound 24, 4-METHYLESCULETIN] | 88 | 100 | –
25 | O=c1ccc2cc(O)c(O)cc2o1 [Compound 25, ESCULETIN] | 87 | 88 | –
26 | O=c1ccc2cc(O[C@@H]3O[C@H](CO)[C@@H](O)[C@H](O)[C@H]3O)c(O)cc2o1 [Compound 26, AESCULIN] | 70 | 84 | –
27 | CC1(C)Oc2ccc3ccc(=O)oc3c2CC1O (stereo not shown) [Compound 27, LOMATIN] | 89 | 85 | –
28 | C/C=C(/C)C(=O)O[C@@H]1Cc2c(ccc3ccc(=O)oc23)OC1(C)C [Compound 28, SELINIDIN] | 85 | 82 | –
29 | C/C=C(\C)C(=O)O[C@@H]1c2c(ccc3ccc(=O)oc23)OC(C)(C)[C@@H]1OC(C)=O [Compound 29, PTERYXIN] | 93 | 101 | –
30 | CC(=O)O[C@@H]1c2c(ccc3ccc(=O)oc23)OC(C)(C)[C@@H]1OC(=O)CC(C)C [Compound 30, DIHYDROSAMIDIN] | 106 | 88 | –
31 | CC(C)(O)[C@@H]1Cc2cc3ccc(=O)oc3cc2O1 [Compound 31, MARMESIN] | 89 | 97 | –
32 | CC(=O)OC(C)(C)[C@@H]1Cc2cc3ccc(=O)oc3cc2O1 [Compound 32, MARMESIN ACETATE] | 77 | 92 | –
33 | COc1c(C(C)C)oc2cc3oc(=O)ccc3cc12 [Compound 34, PEUCEDANIN] | 83 | 84 | –
34 | COc1c2c(c(CC=C(C)C)c3oc(=O)c(-c4ccc(O)cc4)c(O)c13)OC(C)(C)C=C2 [Compound 35, LO[…]] | 84 | 81 | –
35 | Cc1cc(=O)oc2c(O)c(O)ccc12 [Compound 37, 4- METHYLDAPHNETIN] | 83 | 88 | –
36 | COc1cc2ccc(=O)oc2cc1O [Compound 38, SCOPOLETIN] | 77 | 83 | –
37 | COc1cc2ccc(=O)oc2c(O)c1O [Compound 39, FRAXETIN] | 84 | 89 | –
38 | DERRUSNIN [Compound 36] | – | – | % of control melanin remaining after treatment @ 1 μM [1]: 81 % of control; % of control melanin remaining after treatment @ 5 μM [2]: 87 % of control
39 | FELAMIDIN [Compound 40] | – | – | % of control melanin remaining after treatment @ 1 μM [1]: 97 % of control; % of control melanin remaining after treatment @ 5 μM [2]: 88 % of control
